US20120094998A1, “Oligomer-Protein Tyrosine Kinase Inhibitor Conjugates” (Nektar Therapeutics, priority 2009, published 2012)
Read-outs that look alike come from different tables or passages of the source.

How the values were obtained:
LYN = LYN (Homo sapiens, UniProt P07948); assay: Activity against various protein tyrosine kinases: LYN; format: biochemical; settings: for inhibition at 0.01 µM: 10 nM
Procedure: (§1) Using techniques know those of ordinary skill in the art, compounds were tested for activity against various protein tyrosine kinases.

EGFR = EGFR (Homo sapiens, UniProt P00533); assay: Activity against various protein tyrosine kinases: EGFR; format: biochemical; settings: for inhibition at 0.01 µM: 10 nM
Procedure: as §1

INSR = INSR (Homo sapiens, UniProt P06213); assay: Activity against various protein tyrosine kinases: INSR; format: biochemical; settings: for inhibition at 0.01 µM: 10 nM
Procedure: as §1

BTK = BTK (Homo sapiens, UniProt Q06187); assay: Activity against various protein tyrosine kinases: BTK; format: biochemical; settings: for inhibition at 0.01 µM: 10 nM
Procedure: as §1

YES = YES (Homo sapiens, UniProt P07947); assay: Activity against various protein tyrosine kinases: YES; format: biochemical; settings: for inhibition at 0.01 µM: 10 nM
Procedure: as §1

AurC = molecular target: T1, AurC (Homo sapiens, UniProt Q9UQB9); assay: Activity against various protein tyrosine kinases: AurC; format: biochemical; settings: for inhibition at 0.01 µM: 10 nM
T1 sequence (Q9UQB9 1-309): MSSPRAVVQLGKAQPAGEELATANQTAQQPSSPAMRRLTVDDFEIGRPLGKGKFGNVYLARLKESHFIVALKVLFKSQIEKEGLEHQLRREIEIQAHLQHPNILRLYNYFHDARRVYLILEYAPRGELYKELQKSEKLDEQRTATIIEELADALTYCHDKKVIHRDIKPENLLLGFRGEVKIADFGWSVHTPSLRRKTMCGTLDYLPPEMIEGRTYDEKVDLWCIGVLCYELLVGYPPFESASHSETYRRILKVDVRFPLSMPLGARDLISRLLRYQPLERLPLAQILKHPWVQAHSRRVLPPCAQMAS
Procedure: as §1

ABL [1] = molecular target: T2, ABL (Homo sapiens, UniProt P00519); assay: Activity against various protein tyrosine kinases: ABL; format: biochemical; design: purchased MILLIPORE 14-529; settings: for inhibition at 0.01 µM: read-out: % Inhibition at 10 nM; for inhibition at 1 µM: read-out: % Inhibition at 1 μM
Procedure: as §1

ABL (Q252H) = ABL (Q252H) (Homo sapiens, UniProt P00519, Q252H); assay: Activity against various protein tyrosine kinases: ABL (Q252H); format: biochemical; settings: for inhibition at 0.01 µM: read-out: % Inhibition at 10 nM; for inhibition at 1 µM: read-out: % Inhibition at 1 μM
Procedure: as §1

FGFR1 = FGFR1 (Homo sapiens, UniProt P11362); assay: Activity against various protein tyrosine kinases: FGFR1; format: biochemical; settings: for inhibition at 0.01 µM: 10 nM
Procedure: as §1

ABL (T315I) = ABL (T315I) (Homo sapiens, UniProt P00519, T315I); assay: Activity against various protein tyrosine kinases: ABL (T315I); format: biochemical; settings: for inhibition at 0.01 µM: read-out: % Inhibition at 10 nM; for inhibition at 1 µM: read-out: % Inhibition at 1 μM
Procedure: as §1

LCK = LCK (Homo sapiens, UniProt P06239); assay: Activity against various protein tyrosine kinases: LCK; format: biochemical; settings: for inhibition at 0.01 µM: 10 nM
Procedure: as §1

PKD2 = molecular target: T3, PKD2 (Homo sapiens, UniProt Q9BZL6); assay: Activity against various protein tyrosine kinases: PKD2; format: biochemical; settings: for inhibition at 0.01 µM: 10 nM
T3 sequence (Q9BZL6 1-878): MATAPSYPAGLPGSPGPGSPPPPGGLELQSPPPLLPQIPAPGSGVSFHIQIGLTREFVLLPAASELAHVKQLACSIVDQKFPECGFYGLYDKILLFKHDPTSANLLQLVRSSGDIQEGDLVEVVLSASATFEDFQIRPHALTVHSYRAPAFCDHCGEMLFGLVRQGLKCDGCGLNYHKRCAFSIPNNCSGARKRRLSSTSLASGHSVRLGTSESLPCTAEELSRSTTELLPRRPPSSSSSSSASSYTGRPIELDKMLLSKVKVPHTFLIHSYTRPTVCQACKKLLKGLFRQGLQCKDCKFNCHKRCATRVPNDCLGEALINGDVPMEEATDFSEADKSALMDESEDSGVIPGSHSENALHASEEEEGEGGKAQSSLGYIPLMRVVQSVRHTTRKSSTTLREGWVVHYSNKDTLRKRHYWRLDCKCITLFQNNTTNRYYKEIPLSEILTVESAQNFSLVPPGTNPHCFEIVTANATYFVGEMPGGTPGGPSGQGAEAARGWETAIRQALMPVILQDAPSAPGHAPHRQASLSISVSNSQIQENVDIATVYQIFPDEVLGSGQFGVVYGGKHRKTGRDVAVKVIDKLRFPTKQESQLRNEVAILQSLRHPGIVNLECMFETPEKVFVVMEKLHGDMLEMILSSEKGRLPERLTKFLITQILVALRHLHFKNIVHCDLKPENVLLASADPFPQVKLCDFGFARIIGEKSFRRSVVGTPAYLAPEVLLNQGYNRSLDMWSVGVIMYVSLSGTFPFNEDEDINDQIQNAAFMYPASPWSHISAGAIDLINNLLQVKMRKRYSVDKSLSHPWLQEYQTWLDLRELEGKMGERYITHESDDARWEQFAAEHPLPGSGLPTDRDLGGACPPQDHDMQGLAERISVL
Procedure: as §1

ABL [2] = molecular target: T2, ABL; assay: Off-chip mobility-shift kinase assay (Caliper LABCHIP), ABL
ABL (H396P) = ABL (H396P) (Homo sapiens, UniProt P00519, H396P); assay: Activity against various protein tyrosine kinases: ABL (H396P); format: biochemical; settings: for inhibition at 0.01 µM: read-out: % Inhibition at 10 nM; for inhibition at 1 µM: read-out: % Inhibition at 1 μM
Procedure: as §1

Sequence of EGFR (P00533 25-1210, species assumed): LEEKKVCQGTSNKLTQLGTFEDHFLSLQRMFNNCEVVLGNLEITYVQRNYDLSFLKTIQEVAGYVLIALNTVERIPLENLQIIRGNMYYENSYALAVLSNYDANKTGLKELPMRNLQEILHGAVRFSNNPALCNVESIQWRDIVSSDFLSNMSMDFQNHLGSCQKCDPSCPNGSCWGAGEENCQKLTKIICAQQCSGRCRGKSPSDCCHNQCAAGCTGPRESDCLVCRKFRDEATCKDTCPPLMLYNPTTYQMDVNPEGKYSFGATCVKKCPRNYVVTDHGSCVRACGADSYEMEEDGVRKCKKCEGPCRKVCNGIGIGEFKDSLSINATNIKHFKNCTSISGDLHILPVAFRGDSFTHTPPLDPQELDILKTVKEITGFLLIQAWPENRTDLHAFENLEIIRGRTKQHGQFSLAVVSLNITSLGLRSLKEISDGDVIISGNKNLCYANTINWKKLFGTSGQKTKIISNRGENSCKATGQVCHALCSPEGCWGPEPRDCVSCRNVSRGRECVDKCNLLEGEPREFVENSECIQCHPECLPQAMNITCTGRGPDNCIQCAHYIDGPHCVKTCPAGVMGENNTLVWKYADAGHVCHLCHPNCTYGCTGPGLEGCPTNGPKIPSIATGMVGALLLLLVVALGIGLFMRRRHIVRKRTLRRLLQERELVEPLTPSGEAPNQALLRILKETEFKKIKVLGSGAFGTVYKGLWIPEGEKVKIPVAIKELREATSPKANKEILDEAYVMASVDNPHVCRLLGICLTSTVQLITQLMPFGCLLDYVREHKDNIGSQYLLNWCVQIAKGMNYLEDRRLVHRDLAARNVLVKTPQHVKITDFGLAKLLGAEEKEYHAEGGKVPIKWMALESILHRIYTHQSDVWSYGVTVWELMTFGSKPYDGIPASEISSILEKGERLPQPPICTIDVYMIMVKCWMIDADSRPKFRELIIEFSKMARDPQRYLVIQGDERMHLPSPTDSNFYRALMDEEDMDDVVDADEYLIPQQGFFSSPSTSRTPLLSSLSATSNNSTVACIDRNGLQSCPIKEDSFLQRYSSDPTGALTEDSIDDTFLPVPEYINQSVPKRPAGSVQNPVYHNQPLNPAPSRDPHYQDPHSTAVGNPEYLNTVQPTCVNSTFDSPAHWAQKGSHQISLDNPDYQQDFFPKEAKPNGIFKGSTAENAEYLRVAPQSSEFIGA
Sequence of FGFR1 (P11362 22-822, species assumed): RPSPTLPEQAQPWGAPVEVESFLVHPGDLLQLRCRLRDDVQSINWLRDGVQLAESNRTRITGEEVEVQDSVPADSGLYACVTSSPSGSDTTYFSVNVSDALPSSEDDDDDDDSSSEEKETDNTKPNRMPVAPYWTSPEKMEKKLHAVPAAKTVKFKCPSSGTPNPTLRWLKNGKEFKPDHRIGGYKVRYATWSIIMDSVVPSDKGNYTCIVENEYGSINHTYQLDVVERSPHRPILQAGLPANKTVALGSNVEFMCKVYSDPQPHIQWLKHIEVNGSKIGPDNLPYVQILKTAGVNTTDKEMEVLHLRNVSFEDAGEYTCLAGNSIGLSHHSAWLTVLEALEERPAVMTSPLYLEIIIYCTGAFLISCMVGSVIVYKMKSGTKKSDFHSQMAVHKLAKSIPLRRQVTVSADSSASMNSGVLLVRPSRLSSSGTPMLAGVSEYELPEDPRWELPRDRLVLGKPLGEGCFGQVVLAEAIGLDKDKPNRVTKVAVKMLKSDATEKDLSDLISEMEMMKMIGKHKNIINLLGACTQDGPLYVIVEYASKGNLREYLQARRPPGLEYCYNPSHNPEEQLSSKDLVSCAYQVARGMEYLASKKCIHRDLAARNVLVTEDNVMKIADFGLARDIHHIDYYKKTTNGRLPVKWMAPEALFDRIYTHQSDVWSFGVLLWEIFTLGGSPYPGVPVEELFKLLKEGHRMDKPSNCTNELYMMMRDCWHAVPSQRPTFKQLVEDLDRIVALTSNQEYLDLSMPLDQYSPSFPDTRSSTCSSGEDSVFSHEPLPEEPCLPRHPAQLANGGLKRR
Sequence of INSR (P06213 28-1382, species assumed): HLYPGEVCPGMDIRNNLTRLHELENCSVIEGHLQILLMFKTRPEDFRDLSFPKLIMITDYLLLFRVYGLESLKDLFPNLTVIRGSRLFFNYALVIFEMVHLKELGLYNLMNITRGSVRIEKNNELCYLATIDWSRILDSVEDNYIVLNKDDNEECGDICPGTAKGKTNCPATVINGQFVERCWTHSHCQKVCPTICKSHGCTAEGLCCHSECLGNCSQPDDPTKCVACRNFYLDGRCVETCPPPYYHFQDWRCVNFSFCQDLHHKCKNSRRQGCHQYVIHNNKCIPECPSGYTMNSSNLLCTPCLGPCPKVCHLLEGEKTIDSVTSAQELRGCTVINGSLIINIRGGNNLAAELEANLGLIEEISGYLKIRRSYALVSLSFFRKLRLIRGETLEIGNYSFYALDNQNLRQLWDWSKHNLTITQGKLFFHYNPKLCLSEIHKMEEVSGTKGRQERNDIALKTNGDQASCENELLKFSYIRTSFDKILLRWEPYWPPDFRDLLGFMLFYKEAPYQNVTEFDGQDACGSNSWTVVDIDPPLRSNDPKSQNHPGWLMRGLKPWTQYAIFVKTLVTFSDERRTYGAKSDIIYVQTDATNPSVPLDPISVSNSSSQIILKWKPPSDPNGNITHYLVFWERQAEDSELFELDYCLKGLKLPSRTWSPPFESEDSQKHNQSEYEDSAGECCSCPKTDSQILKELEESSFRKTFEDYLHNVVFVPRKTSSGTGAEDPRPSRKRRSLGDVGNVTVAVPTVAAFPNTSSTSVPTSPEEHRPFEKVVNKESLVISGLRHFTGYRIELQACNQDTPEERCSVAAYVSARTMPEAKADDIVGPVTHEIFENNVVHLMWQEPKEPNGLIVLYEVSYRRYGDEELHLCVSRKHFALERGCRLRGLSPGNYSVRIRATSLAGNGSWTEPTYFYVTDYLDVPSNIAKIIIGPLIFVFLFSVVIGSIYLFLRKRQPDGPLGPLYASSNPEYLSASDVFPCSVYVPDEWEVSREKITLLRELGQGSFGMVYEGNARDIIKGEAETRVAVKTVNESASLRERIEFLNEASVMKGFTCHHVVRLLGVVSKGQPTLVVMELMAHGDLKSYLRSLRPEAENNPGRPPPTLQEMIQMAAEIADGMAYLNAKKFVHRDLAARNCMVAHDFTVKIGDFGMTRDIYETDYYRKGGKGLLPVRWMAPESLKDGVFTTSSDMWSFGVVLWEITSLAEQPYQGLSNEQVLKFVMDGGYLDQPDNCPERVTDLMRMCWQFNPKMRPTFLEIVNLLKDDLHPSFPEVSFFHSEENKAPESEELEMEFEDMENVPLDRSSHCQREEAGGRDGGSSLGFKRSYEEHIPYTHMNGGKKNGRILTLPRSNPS
Sequence of BTK (Q06187 whole entry, species assumed): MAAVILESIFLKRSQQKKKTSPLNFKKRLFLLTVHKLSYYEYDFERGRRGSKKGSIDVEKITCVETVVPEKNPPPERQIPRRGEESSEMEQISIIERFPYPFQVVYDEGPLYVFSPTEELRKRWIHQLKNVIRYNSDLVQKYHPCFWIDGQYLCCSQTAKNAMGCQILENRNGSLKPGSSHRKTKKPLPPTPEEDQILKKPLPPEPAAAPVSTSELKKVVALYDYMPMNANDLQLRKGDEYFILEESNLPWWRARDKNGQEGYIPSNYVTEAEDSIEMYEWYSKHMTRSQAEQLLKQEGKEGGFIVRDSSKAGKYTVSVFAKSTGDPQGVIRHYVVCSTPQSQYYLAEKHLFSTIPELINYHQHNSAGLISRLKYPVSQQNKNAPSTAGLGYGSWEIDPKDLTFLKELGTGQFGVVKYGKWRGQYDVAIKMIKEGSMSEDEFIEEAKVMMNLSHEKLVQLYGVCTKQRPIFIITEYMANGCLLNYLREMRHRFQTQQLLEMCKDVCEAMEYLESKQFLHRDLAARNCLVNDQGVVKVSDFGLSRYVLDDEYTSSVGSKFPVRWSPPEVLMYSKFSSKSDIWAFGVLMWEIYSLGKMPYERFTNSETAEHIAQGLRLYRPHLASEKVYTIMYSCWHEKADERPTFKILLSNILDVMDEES
Sequence of LYN (P07948 whole entry, species assumed): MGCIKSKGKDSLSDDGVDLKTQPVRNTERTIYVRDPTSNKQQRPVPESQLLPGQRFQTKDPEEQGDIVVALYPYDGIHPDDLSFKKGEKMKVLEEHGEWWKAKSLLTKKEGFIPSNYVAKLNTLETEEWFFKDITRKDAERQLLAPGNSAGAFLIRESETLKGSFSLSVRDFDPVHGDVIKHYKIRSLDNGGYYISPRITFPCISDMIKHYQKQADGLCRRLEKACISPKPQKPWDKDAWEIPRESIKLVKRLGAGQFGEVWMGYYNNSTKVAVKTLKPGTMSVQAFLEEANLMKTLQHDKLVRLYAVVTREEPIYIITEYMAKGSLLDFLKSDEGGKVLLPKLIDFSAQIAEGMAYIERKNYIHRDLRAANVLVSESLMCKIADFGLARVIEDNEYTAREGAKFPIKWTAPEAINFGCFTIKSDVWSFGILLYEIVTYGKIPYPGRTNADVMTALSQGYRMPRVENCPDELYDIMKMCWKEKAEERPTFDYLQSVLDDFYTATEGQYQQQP
Sequence of YES (P07947 whole entry, species assumed): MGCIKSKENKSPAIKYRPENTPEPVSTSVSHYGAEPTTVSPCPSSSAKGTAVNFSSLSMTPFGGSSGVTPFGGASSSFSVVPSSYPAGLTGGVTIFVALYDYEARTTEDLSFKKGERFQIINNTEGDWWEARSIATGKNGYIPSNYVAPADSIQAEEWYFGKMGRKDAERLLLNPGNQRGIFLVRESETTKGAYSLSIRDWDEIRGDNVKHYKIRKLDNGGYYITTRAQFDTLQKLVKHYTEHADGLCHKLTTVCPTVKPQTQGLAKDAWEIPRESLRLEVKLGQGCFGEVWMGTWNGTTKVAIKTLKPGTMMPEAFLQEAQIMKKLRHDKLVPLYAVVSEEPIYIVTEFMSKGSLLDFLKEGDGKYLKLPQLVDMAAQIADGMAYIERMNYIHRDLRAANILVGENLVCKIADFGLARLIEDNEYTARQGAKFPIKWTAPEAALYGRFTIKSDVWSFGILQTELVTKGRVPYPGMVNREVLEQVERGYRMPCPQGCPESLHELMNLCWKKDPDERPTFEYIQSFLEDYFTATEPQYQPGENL

In the case of `COCCOCCOCCOCCOCCOCCOCCNC(=O)OCCN1CCN(c2cc(Nc3ncc(C(=O)Nc4c(C)cccc4Cl)s3)nc(C)n2)CC1` [mPEG7-NHCOO-Dasatinib], the inhibition at 0.01 µM (LYN) is reported as 98%, the inhibition at 1 µM (LYN) is reported as 98% and the inhibition at 0.01 µM (EGFR) is reported as 6%. It also gave an inhibition at 1 µM (EGFR) of 62%, an inhibition at 0.01 µM (INSR) of 2% and an inhibition at 1 µM (INSR) of 3%. It also gave an inhibition at 0.01 µM (BTK) of 99%, an inhibition at 1 µM (BTK) of 100% and an inhibition at 0.01 µM (YES) of 100%. The inhibition at 1 µM (YES) was 102%, the inhibition at 0.01 µM (AurC) was 0% and the inhibition at 1 µM (AurC) was 2%. It also gave an inhibition at 0.01 µM (ABL [1]; ABL, 10 nM) of 99%, an inhibition at 1 µM (ABL [1]; ABL, 1 μM) of 99% and an inhibition at 0.01 µM (ABL (Q252H); ABL (Q252H), 10 nM) of 99%. The inhibition at 1 µM (ABL (Q252H); ABL (Q252H), 1 μM) was 99%, the inhibition at 0.01 µM (FGFR1) was 2% and the inhibition at 1 µM (FGFR1) was 3%. For the same compound, the inhibition at 0.01 µM (ABL (T315I); ABL (T315I), 10 nM) was 4%, the inhibition at 1 µM (ABL (T315I); ABL (T315I), 1 μM) was 26% and the inhibition at 0.01 µM (LCK) was 98%. The inhibition at 1 µM (LCK) was 98%, the inhibition at 0.01 µM (PKD2) was 3% and the inhibition at 1 µM (PKD2) was 4%. The IC50 (ABL [2]) was 0.32 nM, the “ABL AVG % Activity at 1.0E−09” value (ABL [2]; concentration 1.0E−09, dasatinib-corresponding compounds) was 4% and the “ABL AVG % Activity at 1.0E−10” value (ABL [2]; concentration 1.0E−10, dasatinib-corresponding compounds) was 80%. The “ABL AVG % Activity at 1.0E−11” value (ABL [2]; concentration 1.0E−11, dasatinib-corresponding compounds) was 98%, the “ABL AVG % Activity at 3.0E−09” value (ABL [2]; concentration 3.0E−09, dasatinib-corresponding compounds) was −1% and the “ABL AVG % Activity at 3.0E−10” value (ABL [2]; concentration 3.0E−10, dasatinib-corresponding compounds) was 48%. The “ABL AVG % Activity at 3.0E−11” value (ABL [2]; concentration 3.0E−11, dasatinib-corresponding compounds) was 91%, the inhibition at 0.01 µM (ABL (H396P); ABL (H396P), 10 nM) was 99% and the inhibition at 1 µM (ABL (H396P); ABL (H396P), 1 μM) was 99%.

`COCCOCCOCCNC(=O)OCCN1CCN(c2cc(Nc3ncc(C(=O)Nc4c(C)cccc4Cl)s3)nc(C)n2)CC1` [mPEG3-NHCOO-Dasatinib] gave an inhibition at 0.01 µM (LYN) of 99%, an inhibition at 1 µM (LYN) of 99% and an inhibition at 0.01 µM (EGFR) of 3%. It also gave an inhibition at 1 µM (EGFR) of 76%, an inhibition at 0.01 µM (INSR) of 1% and an inhibition at 1 µM (INSR) of -1%. It also gave an inhibition at 0.01 µM (BTK) of 99%, an inhibition at 1 µM (BTK) of 100% and an inhibition at 0.01 µM (YES) of 100%. It also gave an inhibition at 1 µM (YES) of 100%, an inhibition at 0.01 µM (AurC) of -1% and an inhibition at 1 µM (AurC) of 0%. For the same compound, the inhibition at 0.01 µM (ABL [1]) was 99%, the inhibition at 1 µM (ABL [1]) was 99% and the inhibition at 0.01 µM (ABL (Q252H)) was 98%. It also gave an inhibition at 1 µM (ABL (Q252H)) of 99%, an inhibition at 0.01 µM (FGFR1) of 11% and an inhibition at 1 µM (FGFR1) of -3%. For the same compound, the inhibition at 0.01 µM (ABL (T315I)) was 1%, the inhibition at 1 µM (ABL (T315I)) was 36% and the inhibition at 0.01 µM (LCK) was 97%. For the same compound, the inhibition at 1 µM (LCK) was 98%, the inhibition at 0.01 µM (PKD2) was 12% and the inhibition at 1 µM (PKD2) was -5%. For the same compound, the IC50 (ABL [2]) was 0.3 nM, the inhibition at 0.01 µM (ABL (H396P)) was 99% and the inhibition at 1 µM (ABL (H396P)) was 99%.
